US8309550B2, “Kinase inhibitors and their use as pharmaceutical agents” (Shanghai Genomics, Inc., priority 2011, dated 2012)
Where two headings read alike, the source gives them in different places.

What was measured:
[1] = biological target: CDK9T1 (Homo sapiens, UniProt P50750); experiment: Kinase assay CDK9T1 (Table I); format: biochemical; conditions: read-out: Kinase inhibition, IC50 CDK9T1
[2] = test system: HL-60; experiment: 72 h MTT cell viability HL-60; format: cell-based; conditions: Homo sapiens
From the text: (§1) MIT cytotoxicity assay. The compounds of the invention were subjected to a standard cellular proliferation assay using human cell lines. HeLa cells (Human cervix adenocarcinoma cell line, ATCC NO, CCL-2); A549 cells (Human lung carcinoma cells line, ATCC NO, CCL-185); U2OS cells (Human osteosarcoma cell line, ATCC NO, HTB-96); Eca-109 cells (Human esophageal carcinoma cell line); HepG2 (Human hepatocellular liver carcinoma cell line, ATCC NO, HB-8065); K562 cells (Human chronic myelogenous leukemia cell line, ATCC NO, CCL-243); SK-MEL-28 (Human malignant melanoma cell line, ATCC NO, HTB-72); Molt-4 (Human acute lymphoblastic leukemia cell line, ATCC NO, CRL-1582); H460 (Human large cell lung cancer cell line, ATCC NO, HTB-177); MDA-MB-231 (Human breast adenocarcinoma cell line, ATCC NO, HTB-26); MCF7 (Human breast adenocarcinoma cell line, ATCC NO, HTB-22); ACHN (Human renal cell adenocarcinoma cell line, ATCC NO, CRL-1611); PC-3M (Human prostate adenocarcinoma cell line, ATCC NO CRL-1435); HL60 (Human acute promyelocytic leukemia cell line, ATCC NO, CCL-240); THP-1 (Human acute monocytic leukemia, ATCC NO, TIB-202); Jurkat (Human acute T cell leukemia cell line, ATCC NO, CRL-2063); HCT-116 (Human colorectal carcinoma cell line, ATCC NO, CCL-247); HT-29 (Human colorectal adenocarcinoma cell line, ATCC NO, HTB-38™); WI-38 (Human normal lung cell line, ATCC NO, CCL-75); MRC-5 (Human normal lung cell line, ATCC NO, CCL-171).
(§2) HepG2, MDA-MB-231, WI-38 and MRC-5 cells were obtained from Shanghai Institute of Cell Biology, Chinese Academy of Sciences (Shanghai 200031, China). A549, HeLa, K562, MCF7, ACHN, H460, U2OS, Eca-109, MCF7, HL60, THP-1, Jurkat, HCT-116, HT-29, PC-3M, SK-MEL-28, Molt-4, H460 and […] cells were purchased from ATCC (American Type Culture Collection, USA).
(§3) Standard 72 h MTT (thiazolye blue; 3-[4,5-dimethylthiazol-2-yl]-2,5-diphenyltetrazolium bromide) assays were performed. Briefly, the cell lines used in this study were recovered and cultured according to the conditions recommended. 4000 cells per well were seeded into 96-well plates according to doubling time and incubated overnight at 37° C. Compounds were prepared in DMSO and a ½ dilution series in 100 μl cell culture media, added to cells (in duplicates) with the final DMSO concentration of 0.025%, and incubated for 72 hrs at 37° C. MTT solution (5 mg/ml) was added at 10 μl per well and incubated in the dark at 37° C. for 4 hr. Culture medium and MTT solution was removed. MTT dye was solubilised with 100 μl per well of DMSO with agitation. Absorbance was read at 562 nm and data analyzed using Sigmoid curve-fitting software Origin 6.0 (MicroCal, LLC, USA) to determine IC50 value.

[3] = test system: A549 cells; experiment: 72 h MTT cytotoxicity assay A549; format: cell-based; conditions: Homo sapiens; A549, 72 hrs
From the text: as §1, §2, §3

[4] = test system: MDA-MB-231-luc; experiment: 72 h MTT cell viability MDA-MB-231-luc; format: cell-based; conditions: Homo sapiens
From the text: as §1, §2, §3

[5] = test system: HeLa cells; experiment: 72 h MTT cytotoxicity assay HeLa; format: cell-based; conditions: Homo sapiens
From the text: as §1, §2, §3

[6] = test system: SK-MEL-28-luc; experiment: 72 h MTT cytotoxicity assay SK-MEL-28-luc; format: cell-based; conditions: Homo sapiens
From the text: as §1, §2, §3

[7] = test system: K562 cells; experiment: 72 h MTT cytotoxicity assay K562; format: cell-based; conditions: Homo sapiens; K562, 72 hrs
From the text: as §1, §2, §3

[8] = test system: ACHN-luc; experiment: 72 h MTT cell viability ACHN-luc; format: cell-based; conditions: Homo sapiens
From the text: as §1, §2, §3

[9] = test system: Eca-109 cells; experiment: 72 h MTT cytotoxicity assay Eca-109; format: cell-based; conditions: Homo sapiens; Eca-109, 72 hrs
From the text: as §1, §2, §3

[10] = test system: MCF7; experiment: 72 h MTT cytotoxicity assay MCF7; format: cell-based; conditions: Homo sapiens; MCF7, 72 hrs
From the text: as §1, §2, §3

[11] = test system: THP-1; experiment: 72 h MTT cell viability THP-1; format: cell-based; conditions: Homo sapiens
From the text: as §1, §2, §3

[12] = test system: Jurkat; experiment: 72 h MTT cell viability Jurkat; format: cell-based; conditions: Homo sapiens
From the text: as §1, §2, §3

[13] = test system: HT-29; experiment: 72 h MTT cell viability HT-29; format: cell-based; conditions: Homo sapiens
From the text: as §1, §2, §3

[14] = test system: HCT 116; experiment: 72 h MTT cell viability HCT 116; format: cell-based; conditions: Homo sapiens
From the text: as §1, §2, §3

[15] = THP-1, read-out: Cell Viability IC50 THP-1
[16] = read-out: Cell Viability IC50 Jurkat
[17] = read-out: Cell Viability IC50 HT-29
[18] = read-out: Cell Viability IC50 HCT 116
[19] = THP-1, Table III, read-out: Cellular effect in mammalian cells IC50 THP-1
[20] = Table III, read-out: Cellular effect in mammalian cells IC50 Jurkat
[21] = HCT116, Table III, read-out: Cellular effect in mammalian cells IC50 HCT116
[22] = HT29, Table III, read-out: Cellular effect in mammalian cells IC50 HT29

CDK9T1, sequence (P50750 whole entry): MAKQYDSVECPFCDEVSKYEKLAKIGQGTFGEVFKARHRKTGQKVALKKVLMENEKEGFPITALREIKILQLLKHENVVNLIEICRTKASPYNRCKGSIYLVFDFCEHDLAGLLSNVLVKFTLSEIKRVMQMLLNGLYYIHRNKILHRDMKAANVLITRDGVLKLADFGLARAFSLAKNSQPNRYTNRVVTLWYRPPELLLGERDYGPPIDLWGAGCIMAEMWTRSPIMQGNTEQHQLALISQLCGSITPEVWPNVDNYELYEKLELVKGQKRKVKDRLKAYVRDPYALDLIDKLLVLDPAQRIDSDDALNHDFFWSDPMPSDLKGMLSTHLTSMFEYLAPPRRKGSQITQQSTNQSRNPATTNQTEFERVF
CDK9T1, sequence (O60563 whole entry partner): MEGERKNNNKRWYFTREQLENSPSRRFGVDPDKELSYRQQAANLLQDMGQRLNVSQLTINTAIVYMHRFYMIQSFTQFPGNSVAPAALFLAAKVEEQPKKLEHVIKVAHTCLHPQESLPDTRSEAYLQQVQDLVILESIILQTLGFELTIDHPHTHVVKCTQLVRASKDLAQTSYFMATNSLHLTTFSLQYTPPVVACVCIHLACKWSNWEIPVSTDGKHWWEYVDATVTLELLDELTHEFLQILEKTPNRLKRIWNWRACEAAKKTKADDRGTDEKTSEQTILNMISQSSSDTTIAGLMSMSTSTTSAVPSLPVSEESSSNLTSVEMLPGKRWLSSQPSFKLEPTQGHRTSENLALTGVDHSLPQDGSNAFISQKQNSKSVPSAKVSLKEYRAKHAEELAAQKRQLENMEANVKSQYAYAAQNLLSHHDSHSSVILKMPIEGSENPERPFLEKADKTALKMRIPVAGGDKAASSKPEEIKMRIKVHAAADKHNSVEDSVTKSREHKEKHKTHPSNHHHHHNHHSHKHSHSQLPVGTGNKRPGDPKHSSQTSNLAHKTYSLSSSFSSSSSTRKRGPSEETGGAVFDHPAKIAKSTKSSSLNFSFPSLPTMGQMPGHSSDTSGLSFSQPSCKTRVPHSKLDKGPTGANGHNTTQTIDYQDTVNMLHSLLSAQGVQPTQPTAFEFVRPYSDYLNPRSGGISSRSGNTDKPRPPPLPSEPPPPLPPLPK

| IC50 [1] | IC50 [2] | IC50 [4] | IC50 [8] | IC50 [11, 15] | IC50 [12, 16] | IC50 [13, 17] | IC50 [14, 18] | IC50 [11, 19] | IC50 [12, 20] | IC50 [14, 21] | IC50 [13, 22] | Compound | IC50 [3] | IC50 [5] | IC50 [6] | IC50 [7] | IC50 [9] | IC50 [10] |
| --- | --- | --- | --- | --- | --- | --- | --- | --- | --- | --- | --- | --- | --- | --- | --- | --- | --- | --- |
| 0.0004 µM | 0.23 µM | 0.75 µM | 0.62 µM |  |  |  |  |  |  |  |  | CCCn1cc(-c2ccnc(Nc3ccc(C)c(S(=O)(=O)N4CCOCC4)c3)n2)c2ccncc21 [Compound 102, N-(4-Methyl-3-(morpholinosulfonyl)phenyl)-4-(1-propyl-1H-pyrrolo[2,3-c]pyridin-3-yl)pyrimidin-2-amine] | 0.57 µM | 0.49 µM | 0.99 µM | 1.44 µM | 3.52 µM | 1.3 µM |
| 0.0006 µM | 0.01 µM | 0.03 µM | 0.06 µM | 0.01 µM | 0.0054 µM |  |  |  |  |  |  | CCCn1cc(-c2ccnc(Nc3cccc(S(N)(=O)=O)c3)n2)c2ccncc21 [Compound 111, 3-(4-(1-Propyl-1H-pyrrolo[2,3-c]pyridin-3-yl)pyrimidin-2-ylamino)benzenesulfonamide] | 0.01 µM | 0.01 µM | 0.01 µM | 0.03 µM | 0.05 µM | 0.08 µM |
| 0.0086 µM | 0.37 µM |  | 0.34 µM | 0.36 µM | 0.22 µM | 0.48 µM | 0.32 µM |  |  |  |  | CCCn1cc(-c2ccnc(Nc3cccc(S(N)(=O)=O)c3)n2)c2ccnc(Cl)c21 [Compound 96, 3-(4-(7-chloro-1-propyl-1H-pyrrolo[2,3-c]pyridin-3-yl)pyrimidin-2-ylamino)benzenesulfonamide] | 0.12 µM | 0.15 µM | 0.26 µM | 0.22 µM | > 10 µM | 0.25 µM |
|  |  |  |  |  |  |  |  | 1.04 µM | 0.36 µM |  |  | CCCn1cc(-c2ccnc(Nc3cccc(S(N)(=O)=O)c3)n2)c2nc(Cl)cc(C)c21 [SG53] |  |  |  |  |  |  |
| 0.014 µM | 1.85 µM | 3.3 µM | 2.98 µM | 5.37 µM |  | 0.81 µM |  |  | 1.31 µM | 2.1 µM |  | CCn1cc(-c2ccnc(Nc3cccc(S(N)(=O)=O)c3)n2)c2cccnc21 [Compound 18, 3-(4-(1-Ethyl-1H-pyrrolo[2,3-b]pyridin-3-yl)pyrimidin-2-ylamino)benzenesulfonamide] | 1.21 µM | 1.7 µM | 8.59 µM | 6.69 µM | 11.7 µM | 0.71 µM |
|  |  |  |  |  |  |  |  | 0.41 µM | 0.69 µM | 0.28 µM | 0.45 µM | CCCn1cc(-c2ccnc(Nc3ccc(C)c(S(=O)(=O)N4CCOCC4)c3)n2)c2ccncc21 [SG52] |  |  |  |  |  |  |
| 0.14 µM |  | 5.27 µM | 7.38 µM |  |  |  |  |  |  |  |  | CCCn1cc(-c2ccnc(Nc3cccc(O)c3)n2)c2cccnc21 [Compound 16, 3-(4-(1-Propyl-1H-pyrrolo[2,3-b]pyridin-3-yl)pyrimidin-2-ylamino)phenol] | 3.33 µM | 14.2 µM | 8.51 µM | 7.68 µM | 12.9 µM | 2.17 µM |
| 1.4 µM |  | 5.94 µM | 7.81 µM |  |  |  |  |  |  |  |  | CCCn1cc(-c2ccnc(Nc3ccc(O)cc3)n2)c2cccnc21 [Compound 15, 4-(4-(1-Propyl-1H-pyrrolo[2,3-b]pyridin-3-yl)pyrimidin-2-ylamino)phenol] | 4.98 µM | 10.4 µM | 9.43 µM | 9.81 µM | 20 µM | 0.12 µM |
| 1.01 µM | 3.49 µM |  | 5.58 µM | 5.25 µM | 1.79 µM | 1.35 µM | 3.43 µM |  |  |  |  | CCCn1cc(-c2ccnc(Nc3ccc(C)c(S(=O)(=O)N4CCOCC4)c3)n2)c2cccnc21 [Compound 24, N-(4-Methyl-3-(morpholinosulfonyl)phenyl)-4-(1-propyl-1H-pyrrolo[2,3-b]pyridin-3-yl)pyrimidin-2-amine] | 3.69 µM | 1.6 µM | 3.05 µM | 3.68 µM | 5.3 µM | 3.48 µM |
|  |  |  |  |  |  |  |  |  |  | 0.004 µM | 0.02 µM | CCCn1cc(-c2ccnc(Nc3cccc(S(N)(=O)=O)c3)n2)c2ccncc21 [SG51] |  |  |  |  |  |  |
| 0.0007 µM | 0.008 µM |  | 0.037 µM | 0.004 µM | 0.0025 µM | 0.05 µM | 0.005 µM |  |  |  |  | CCCn1cc(-c2ccnc(Nc3ccc(S(N)(=O)=O)cc3)n2)c2ccncc21 [Compound 112, 4-(4-(1-Propyl-1H-pyrrolo[2,3-c]pyridin-3-yl)pyrimidin-2-ylamino)benzenesulfonamide] | 0.03 µM | 0.0004 µM | 0.0038 µM | 0.0011 µM | 0.01 µM | 0.0014 µM |
| 0.15 µM | 3.41 µM | 4.68 µM | > 10 µM | 2.08 µM | 3.42 µM | 2.93 µM | > 10 µM |  |  |  |  | CCn1cc(-c2ccnc(Nc3cccc(C#N)c3)n2)c2cccnc21 [Compound 20, 3-(4-(1-Ethyl-1H-pyrrolo[2,3-b]pyridin-3-yl)pyrimidin-2-ylamino)benzonitrile] | 3.07 µM | 5.55 µM | 7.79 µM | 6.11 µM | > 10 µM | > 10 µM |
|  |  |  |  |  |  |  |  | 2.95 µM | 1.12 µM | 3.46 µM | 0.15 µM | CCCn1cc(-c2ccnc(Nc3ccc(S(N)(=O)=O)cc3)n2)c2nc(Cl)cc(C)c21 [SG54] |  |  |  |  |  |  |
| 0.041 µM | 1.14 µM | 1.28 µM | > 10 µM |  |  | 0.2 µM | 3.36 µM |  |  |  |  | CCCn1cc(-c2ccnc(Nc3cccc(S(N)(=O)=O)c3)n2)c2nc(Cl)cc(C)c21 [Compound 42, 3-(4-(5-Chloro-7-methyl-1-propyl-1H-pyrrolo[3,2-b]pyridin-3-yl)pyrimidin-2-ylamino)benzenesulfonamide] | 1.73 µM | 9.93 µM | 9.45 µM | > 10 µM | 10.5 µM | > 10 µM |
| 0.097 µM | 2.09 µM |  | 3.74 µM | 3.26 µM | 1.47 µM | 1.46 µM | 1.89 µM |  |  |  |  | CCCn1cc(-c2ccnc(Nc3cccc(S(N)(=O)=O)c3)n2)c2cccnc21 [Compound 22, 3-(4-(1-Propyl-1H-pyrrolo[2,3-b]pyridin-3-yl)pyrimidin-2-ylamino)benzenesulfonamide] | 2.82 µM | 1.67 µM | 2.72 µM | 1.42 µM | 3.4 µM | 1.13 µM |
